Results from PMC10257657, “A flavin-monooxygenase catalyzing oxepinone formation and the complete biosynthesis of vibralactone” (Nature Communications, 2023).

Key:
VibO [1] = biological target: T1, VibO (Boreostereum vibrans, UniProt A0AA82WP17, F265Y); assay: LC-MS peak area of product […]; format: biochemical; details: 6 0.5 mM, NADPH 0.1 mM, pH 7.5, 28 °C, 2 h; hydroxylation to 7
T1 construct: full length, N-terminal His6 tag, expressed in E. coli BL21(DE3) (pET28a(+)); domains cover residues 1-653; dimer; copurified FAD
T1 sequence (A0AA82WP17 entry or part of it F265Y): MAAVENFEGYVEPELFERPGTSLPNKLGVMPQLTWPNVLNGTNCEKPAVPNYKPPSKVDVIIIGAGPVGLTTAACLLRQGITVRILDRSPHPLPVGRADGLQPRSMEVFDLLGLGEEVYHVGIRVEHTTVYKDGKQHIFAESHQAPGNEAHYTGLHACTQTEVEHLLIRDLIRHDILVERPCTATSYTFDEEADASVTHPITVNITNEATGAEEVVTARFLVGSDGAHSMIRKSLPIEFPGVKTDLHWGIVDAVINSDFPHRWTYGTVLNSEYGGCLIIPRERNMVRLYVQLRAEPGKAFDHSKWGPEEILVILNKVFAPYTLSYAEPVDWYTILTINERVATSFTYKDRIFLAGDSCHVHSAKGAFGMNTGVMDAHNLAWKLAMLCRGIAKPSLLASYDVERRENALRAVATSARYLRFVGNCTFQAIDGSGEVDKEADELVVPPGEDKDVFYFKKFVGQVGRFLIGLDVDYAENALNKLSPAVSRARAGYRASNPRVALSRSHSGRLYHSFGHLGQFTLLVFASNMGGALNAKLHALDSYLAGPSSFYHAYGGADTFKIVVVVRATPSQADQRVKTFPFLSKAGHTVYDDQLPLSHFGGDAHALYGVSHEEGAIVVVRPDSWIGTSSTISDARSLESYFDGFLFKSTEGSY

VibO [2] = biological target: T2, VibO (Boreostereum vibrans, UniProt A0AA82WP17, D99A); assay: LC-MS peak area of product […]; format: biochemical; details: 6 0.5 mM, NADPH 0.1 mM, pH 7.5, 28 °C, 2 h; hydroxylation to 7
T2 construct: full length, N-terminal His6 tag, expressed in E. coli BL21(DE3) (pET28a(+)); domains cover residues 1-653; dimer; copurified FAD
T2 sequence (A0AA82WP17 entry or part of it D99A): as the sequence (A0AA82WP17 entry or part of it F265Y) above, with D99A, Y265F counted along it

VibO [3] = biological target: T3, VibO (Boreostereum vibrans, UniProt A0AA82WP17, D99N); assay: LC-MS peak area of product […]; format: biochemical; details: 6 0.5 mM, NADPH 0.1 mM, pH 7.5, 28 °C, 2 h; hydroxylation to 7
T3 construct: full length, N-terminal His6 tag, expressed in E. coli BL21(DE3) (pET28a(+)); domains cover residues 1-653; dimer; copurified FAD
T3 sequence (A0AA82WP17 entry or part of it D99N): as the sequence (A0AA82WP17 entry or part of it F265Y) above, with D99N, Y265F counted along it

PHHY = biological target: T4, PHHY (Cutaneotrichosporon cutaneum, UniProt P15245); assay: enzyme assay, catechol production; format: cell-based; details: E. coli-expressed enzyme; purification not told in main text
T4 construct: synthesized gene expressed in E. coli; FAD-dependent
T4 sequence (P15245 2-665): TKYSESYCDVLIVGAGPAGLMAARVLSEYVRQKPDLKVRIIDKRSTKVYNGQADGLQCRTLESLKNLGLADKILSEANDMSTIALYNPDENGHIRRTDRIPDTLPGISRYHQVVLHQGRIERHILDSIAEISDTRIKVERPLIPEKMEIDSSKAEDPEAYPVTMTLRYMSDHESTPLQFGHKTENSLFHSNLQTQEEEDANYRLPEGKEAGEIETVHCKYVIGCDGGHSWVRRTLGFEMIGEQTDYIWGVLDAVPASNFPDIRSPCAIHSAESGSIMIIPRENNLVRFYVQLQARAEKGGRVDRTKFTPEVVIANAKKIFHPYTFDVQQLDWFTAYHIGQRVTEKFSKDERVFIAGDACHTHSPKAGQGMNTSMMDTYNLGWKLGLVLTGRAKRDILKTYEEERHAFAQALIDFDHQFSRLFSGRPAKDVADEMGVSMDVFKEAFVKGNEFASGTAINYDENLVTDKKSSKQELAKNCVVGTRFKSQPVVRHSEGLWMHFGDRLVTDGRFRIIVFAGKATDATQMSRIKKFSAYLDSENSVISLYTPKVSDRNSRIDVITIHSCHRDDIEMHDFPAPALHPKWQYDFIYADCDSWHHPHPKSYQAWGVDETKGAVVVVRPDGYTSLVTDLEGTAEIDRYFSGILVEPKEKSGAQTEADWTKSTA

| % of wild-type activity (production of 7) (VibO [1]) | % of wild-type activity (production of 7) (VibO [2]) | % of wild-type activity (production of 7) (VibO [3]) | SMILES | enzyme assay, catechol production (PHHY) |
| --- | --- | --- | --- | --- |
| 22% | 16% | 10% | CC(C)=CCc1cc(CO)ccc1O [compound 6, 3-prenyl-4-hydroxybenzylalcohol] | – |
| – | – | – | Oc1ccccc1 [phenol] | significant production of catechol was observed for PHHY incubating with phenol |
